# Results as given in patent US20220349876A1, “USE OF DKK1 INHIBITOR IN PREVENTION AND/OR TREATMENT OF TUMOR CACHEXIA AND DISEASES ASSOCIATED WITH DIABETES” (SHANGHAI DONGTSU BIOSCIENCES CO., LTD., priority 2019, published 2022).
# “Also recorded” adds a separate entry of the source.
# Experiments:
# wild-type mice heart = test: Local injection of Dkk1 protein into the heart combined with MDC or BIM-46187; type: in vivo, mouse
# Protocol: In the experiment of local injection of Dkk1 purified protein into the heart combined with MDC intervention, 10-week-old wild-type male mice were selected, the left chest was depilated, and intraperitoneal injection of MDC (diluted in sterile PBS, 10 mg/kg) or the corresponding volume of DMSO (diluted in sterile PBS) and injected at the same time every day thereafter. After 1 h of MDC intervention, cardiac Dkk1 protein injection was performed. The mice were given continuous inhalation anesthesia with 1% isoflurane and oxygenated with a ventilator, and then the fourth intercostal space near the sternum was opened to expose the heart. Using a 200 μl microsyringe, Dkk1 (10 μg of Dkk1 per heart, dissolved in 30 μl PBS) or an equal volume of PBS was injected locally at three sites in the heart. Of these, two sites are on the border around the left ventricle, and one site enters the myocardium of the left ventricle. After the injection, the wound was sutured, the anesthesia was removed, and the mice were awake. After MDC was continuously intervened for 2 days, the mice were anesthetized and the materials were collected.
# In addition to injecting Dkk1 protein alone into the heart, we also need to perform experiments of local injection of Dkk1 combined with BIM-46187 into mouse hearts. According to the experimental grouping, it was divided into cardiac injections of four different solutions, including PBS, Dkk1, BIM-46187, and a mixture of Dkk1 and BIM-46187. The dosage of Dkk1 per heart is 10 μg, and the dosage of BIM-46187 is 2.4 ng, diluted with 30 μl PBS and then injected into the heart. The specific operation steps are the same as above. After the injection, the wound was sutured, the anesthesia was removed, and the mice were awake. Two days after the injection, the mice were anesthetized and the materials were collected.
# HUVEC cells = test: γH2AX DNA damage response in HUVEC cells (Western blot); type: cell-based
# Protocol: (2) The transfection system of a 3.5 cm petri dish was prepared as follows: 1 μl of siRNA Oligo/Red (concentration of the original solution was 20 μM) was added to an EP tube containing 250 μl of pure Opti-MEM and mixed, and 1.5 μl of RNAiMAX (transfection Reagent) was added to the flow tube containing 250 μl of pure Opti-MEM and mixed, and then all the liquid in the EP tube was added to the flow tube and mixed, and allowed to stand at room temperature for 15 min.
# (3) The prepared transfection system was added to a 3.5 cm culture dish, and the cells were cultured for 24-48 h, then the samples were collected and the total cell protein was extracted, and the knockdown effect of the gene was identified by Western Blotting.
# (3) Add 150 μl of total protein lysate to each cell sample to make the lysate fully contact with the cells, scrape off the cell lysate with a scraper, collect it into a pre-cooled EP tube, and take an ice bath for 15 min.
# (§1) Protein electrophoresis gels are double-layered gels, including an upper stacking gel and a lower separating gel. The concentration of the stacking gel is 5%, and the concentration of the separating gel is determined according to the molecular weight of the target protein. In this study, large molecular weight proteins (LRP5/6, β-catenin, β-arrestin1/2) used 8%-5% double-layer gel, and small molecular weight proteins (γH2AX, p53, p21, Bcl-2, Bax, Cleaved Caspase-3) used 12%-5% double-layer gel. In addition, the number of wells (10 wells or 15 wells) and thickness (1 mm or 1.5 mm) of the preparation gel were selected according to the number and volume of protein samples loaded. The gel formulation is shown in the experimental material section, and the preparation steps are as follows: […]
# [1] = tested on: STZ-induced diabetic mice; test: STZ-induced type 1 diabetes mouse model with insulin or MDC rescue; type: in vivo
# Protocol: STZ-induced diabetes is a chemical modeling method for diabetes. Its full name is streptozotocin, which is a broad-spectrum antibiotic isolated from achromatic streptomycin. It can selectively damage islet 13 cells in a short period of time, causing 13 cell necrosis, resulting in varying degrees of blood insulin drop and blood sugar rise, resulting in insulin-dependent type 1 diabetes mellitus. […] Modelling criteria are non-fasting blood glucose values above 13.8 mM (250 mg/dl). The modeling steps are as follows: (4) According to the body weight, mice in the model group were injected intraperitoneally with 2% STZ-citric acid solution (160 mg/kg), and the mice in the control group were intraperitoneally injected with the corresponding volume of citrate buffer. 2 h after the injection, the mice were fed back. […] Specific steps are as follows: (3) According to the body weight, the insulin rescue group was subcutaneously injected with diluted insulin (1 U/kg/day), once a day at the same time for 7 consecutive days, and the control group was given a corresponding volume of normal saline. […] Body weight and random blood glucose were measured at different time points after injection. […] (1) Sample preparation: Store the freshly obtained mouse blood in an EDTA anticoagulation tube, stand at room temperature for 10 min, centrifuge at 1000 g for 15 min, and collect the supernatant, namely plasma. If it cannot be detected immediately, it should be subpackaged and stored at −80° C. to avoid repeated freezing. If precipitation occurs during storage, it should be fully thawed at room temperature before use, and centrifuged again.
# LRP6 and Kremen2 = test: Intramuscular injection of Dkk1, Western blot of membrane LRP6 and Kremen2; type: in vivo, mouse
# Protocol: Wild-type mice and β-arrestin2+/−KO mice were injected into the left quadriceps (0.25 mg/kg) and an equal volume of PBS was injected into the right leg as controls. MDC (10 mg/kg), IGFBP-4/H95P (1.7 mg/kg) or PBS were injected in combination with Dkk1 as a control to observe the effects of drugs on Dkk1-induced signal transduction. After 48 hours, the mice were sacrificed, and the left and right quadriceps were taken to measure the […].
# Membrane proteins were extracted according to the instructions of Membrane Protein Extraction Kit (Sangon Biotech, China). Western blot analysis omitted. Antibodies for WB analysis were purchased from Cell Signaling Technology and Proteintech.
# Leptin−/− mice = Leptin−/− mice injected with D-glucose, MDC rescue; type: in vivo, mouse; settings: 6-week-old Leptin−/− mice, D-glucose every 2 h for 24 h
# Protocol: The in vivo rescue experiment of MDC in Leptin^−/− mice was performed by pre-intraperitoneal injection of MDC in 6-week-old Leptin^−/− mice (diluted in sterile PBS, 10 mg/kg) or the corresponding volume of DMSO (diluted in sterile PBS). The injected dose of MDC in Leptin^−/− mice should be calculated based on the body weight of 6-week-old littermates of WT mice. After 1 h of MDC intervention, 50% D-glucose or the corresponding volume of PBS was injected intraperitoneally. The procedure of injecting D-glucose into Leptin^−/− mice was as follows: 12 injections were performed every 2 hours during the 24-hour period, and the injection dose of D-glucose was fixed at the first dose (2 g/kg).
# CT26 tumor-bearing mice [2] = test: Survival of CT26 tumor-bearing mice (Kaplan-Meier); settings: mouse, in vivo; for survival of tumor-bearing mice: ip
# β-arrestin1/2 = β-arrestin1/2 translocation in HUVEC cells (Western blot); type: cell-based
# Protocol: (§2) (5) Add 100 μl (cell) or 200 μl (tissue) A solution to each sample, and resuspend the cell pellet with a pipette to completely disperse the pellet. The tissue pellet should be fully homogenized on ice with a homogenizer, and the ice bath should be used for 15 min.
# (§3) (10) Add 50 μl (cells) or 100 μl (tissue) B solution to each sample, resuspend the pellet in Vortex at the highest speed for 10 s, ice bath for 10 min, and repeat twice to fully extract membrane proteins.
# as §1
# CT26 tumor-bearing mice [3] = test: Tumor cachexia in CT26 tumor-bearing mice: tumor-free body weight, muscle weight, muscle membrane proteins; type: in vivo, mouse
# [4] = tested on: GPCR signaling pathways and cachexia-related pathways; test: RNA-Seq analysis of quadriceps femoris; type: in vivo, mouse; settings: direct intramuscular injection of Dkk1 protein into the lower limbs
# Protocol: Total RNA was extracted using Trizol kit (Lige technology), RNA sequencing library was constructed from the extracted RNA using Illlumina library preparation protocol, RNA-seq was performed on Illlumina HiSeq4000 platform, using two-terminal protocol, the length of both regions was 150 bp. Sequencing reads were aligned to annotated mouse transcripts (mm10) using hisat2 (v2.1.0). Using GFOLD (v1.1.4) to calculate the gene expression level and has found differentially expressed genes. The parameters are as follows: GFOLD value≠0, and the changing value of the two samples is ≥1.35. The RNA-seq data collector GSE121873 was uploaded to the gene expression comprehensive database. KEGG pathway analysis was performed on the defined genes.
# LRP5/6 = test: Membrane LRP5/6 endocytosis and nuclear β-catenin in HUVEC cells (Western blot); type: cell-based
# Protocol: as §2, §3
# (11) Aspirate the residual supernatant completely, and add 50 μl of nuclear protein extract to each sample.
# as §1
molecule,measurement,setting,value
CN(C)c1cccc2c(S(=O)(=O)NCCCCCN)cccc12 [MDC],Dkk1-induced cardiac β-arrestin1/2 translocation,wild-type mice heart; Dkk1 intracardiac injection with MDC or BIM-46187,inhibited
same,"Dkk1-induced cardiac changes (LRP5/6, γH2AX, p53, p21)",wild-type mice heart; Dkk1 intracardiac injection with MDC pretreatment or combined with BIM-46187,reversed
same,γH2AX signaling enhanced by H2O2 in the presence of Dkk1,HUVEC cells; Dkk1 then H2O2 50 μM,significantly attenuated
same,H2O2-induced γH2AX activation,"HUVEC cells; H2O2 50 μM, without Dkk1",does not prevent H2O2-induced γH2AX activation
same,γH2AX response by the substance itself,"HUVEC cells; no Dkk1, no H2O2",does not elicit γH2AX responses
same,Dkk1-induced γH2AX activation,HUVEC cells; pretreatment with MDC or LRP6N protein,attenuated; also recorded: prevents
same,blood 8-OHdG (ELISA),[1]; STZ diabetic mice,prevented the elevation of 8-OHdG
same,blood glucose concentration,[1]; STZ diabetic mice,without altering blood glucose concentrations; also recorded: do not alter blood glucose levels
same,body weight loss of diabetic mice,[1]; STZ diabetic mice,inhibits; also recorded: suppressed
same,"cardiac p53, p21, Bax/Bcl-2 and Cleaved Caspase-3","[1]; STZ diabetic mice, heart","inhibits the upregulation of p53, p21, Bax/Bcl-2 and Cleaved Caspase-3"
same,cardiac γH2AX,"[1]; STZ diabetic mice, heart",γH2AX activation in diabetic hearts can also be inhibited
same,damage to myocardial structure (HE staining),"[1]; STZ diabetic mice, heart",prevented
same,translocation of cardiac β-arrestin1/2 in diabetic hearts,"[1]; STZ diabetic mice, heart",prevented
same,overall LRP5/6 and nuclear or overall β-catenin expression levels,"[1]; STZ diabetic mice, heart, MDC",remain unchanged
same,LRP5/6 on the cardiac membrane,"[1]; STZ diabetic mice, heart, Western blot",STZ-induced downregulation of LRP5/6 in diabetic cardiac membranes can be inhibited
same,translocation of insulin receptors on the cardiac membrane or in the plasma,[1]; substance alone (FIG. 19G),does not induce translocation of insulin receptors
same,Dkk1-induced endocytosis / downregulation of membrane LRP6 and Kremen2,LRP6 and Kremen2; simultaneous injection with Dkk1,prevents this phenomenon
same,down-regulation of LRP5/6 on cardiac membranes induced by glucose injection,Leptin−/− mice,significantly reversed the down-regulation of LRP5/6 on cardiac membranes
same,up-regulation of molecular markers of injury induced by glucose injection,Leptin−/− mice,significantly reversed
same,death / shortened survival of tumor-bearing mice induced by Dkk1 injection,CT26 tumor-bearing mice [2],prolong the shortening of survival in tumor-bearing mice caused by Dkk1; also recorded: inhibit the rapid death of tumor-bearing mice induced by Dkk1 injection
same,survival of tumor-bearing mice,CT26 tumor-bearing mice [2],prolongs the survival of CT26 mice
same,Dkk1-induced translocation of β-arrestin1/2,β-arrestin1/2; MDC pretreatment,prevent the above translocation changes of β-arrestin1/2; also recorded: prevents the translocation of β-arrestin1/2 into cells
same,loss of body weight and muscle weight,CT26 tumor-bearing mice [3],reverse tumor-induced loss of tumor-free body weight and muscle atrophy; also recorded: completely prevents the loss of body weight and muscle weight
same,downregulation of LRP6 and Kremen2 on membrane in muscle,CT26 tumor-bearing mice [3]; Western blot,reverses downregulation of LRP6 and Kremen2 on membrane
Dkk1: recombinant mouse Dkk1 protein purchased from Genscript; secreted protein inducing LRP5/6 endocytosis (protein) TLNSVLINSNAIKNLPPPLGGAGGQPGSAVSVAPGVLYEGGNKYQTLDNYQPYPCAEDEECGSDEYCSSPSRGAAGVGGVQICLACRKRRKRCMRHAMCCPGNYCKNGICMPSDHSHFPRGEIEESIIENLGNDHNAAAGDGYPRRTTLTSKIYHTKGQEGSVCLRSSDCAAGLCCARHFWSKICKPVLKEGQVCTKHKRKGSHGLEIFQRCYCGEGLACRIQKDHHQASNSSRLHTCQRH,"cardiac membrane LRP5/6, γH2AX, p53, p21 and β-catenin signaling","wild-type mice heart; Dkk1 purified protein injected into myocardium, alone","directly induce the down-regulation of LRP5/6 and the up-regulation of γH2AX, p53 and p21 on the cardiac membrane without affecting β-catenin signaling"
same,cardiac β-arrestin1/2 translocation,"wild-type mice heart; direct injection of Dkk1 into the heart, alone",induces down-regulation of membrane β-arrestin1/2 and plasma β-arrestin1/2 and nuclear β-arrestin1 are up-regulated
same,translocation of insulin receptors in cardiac cells,wild-type mice heart; direct injection of Dkk1 protein,do not undergo translocation changes
same,time of peak γH2AX activation,HUVEC cells; Dkk1 100 ng/ml,15 min
same,time to significant γH2AX activation,HUVEC cells; Dkk1 100 ng/ml,≤ 5 min
same,membrane LRP6 and Kremen2 after intramuscular injection of Dkk1,"LRP6 and Kremen2; Dkk1 alone, lower limbs of normal mice",causes the endocytosis of LRP6 and Kremen2 on the membrane
same,activation of GPCR signaling pathways and cachexia-related pathways,[4],immediately led to the activation of GPCR signaling pathways and cachexia-related pathways
same,survival of tumor-bearing mice,CT26 tumor-bearing mice [2],significantly shorten the survival period of tumor-bearing mice
same,β-arrestin1/2 translocation (cytoplasm / cell membrane),β-arrestin1/2; Dkk1 stimulation alone,rapidly up-regulate β-arrestin1/2 in HUVEC cytoplasm and down-regulate β-arrestin1/2 on the cell membrane
same,time after which nuclear β-catenin is down-regulated,LRP5/6; Dkk1 100 ng/ml,60 min
same,time from which endocytosis of LRP5 on the cell membrane is induced,LRP5/6; Dkk1 100 ng/ml,15 min
same,time from which endocytosis of LRP6 on the cell membrane is induced,LRP5/6; Dkk1 100 ng/ml,5 min
same,nuclear β-catenin expression within 30 min,LRP5/6; higher doses of Dkk1,does not down-regulate nuclear β-catenin expression
